In patent US7550625B2, “Esters of florfenicol” (priority 2007, dated 2009):

Key:
various bacteria = conditions: cited from earlier work
[1] = system: variety of microorganisms; conditions: cited from earlier work
[2] = Serum concentration of florfenicol after subcutaneous injection to an animal; assay type: in vivo
Source text: A lower Cmax advantageously avoids undesirable side-effects.

[3] = added to serum in vitro; compared with florfenicol butyrate

## CS(=O)(=O)c1ccc([C@@H](O)[C@@H](CF)NC(=O)C(Cl)Cl)cc1 [florfenicol]
Various bacteria
  typical minimum inhibitory concentrations (MICs): 0.3 to 1 µg/mL
[1]; Citrobacter, Proteus mirabilis, Proteus sp., Shigella, Salmonella, Providencia, Bacteroides, Staphylococcos aureus, Enterococci, Pasteurlla haemolytica, Pasteurella multocida, Haemophilus somnus, Haemophilus influenza
  activity against microorganisms: active
[1]; Serratia marcescens, Pseudomonas aeruginosa, Acinetobacter
  resistance of microorganisms to the substance: resistant

## COCCOCC(=O)O[C@H](c1ccc(S(C)(=O)=O)cc1)[C@@H](CF)NC(=O)C(Cl)Cl [formula (Ia)]
[2]; administered to an animal, compared with florfenicol
  Cmax for the serum concentration of florfenicol: lower than the Cmax for the serum concentration of florfenicol when florfenicol is administered
[2]; subcutaneous injection, compared with florfenicol or florfenicol butyrate
  time period for which serum concentration of florfenicol is therapeutically effective: longer
[3]
  rate of hydrolysis in serum: hydrolyzed faster than florfenicol butyrate

## CN(C)CC(=O)OC(c1ccc(S(C)(=O)=O)cc1)C(CF)NC(=O)C(Cl)Cl (stereo not shown) [formula (Ib)]
[2]; when administered to an animal, expected, compared with florfenicol and other florfenicol esters
  pharmacokinetic and pharmacodynamic profile: superior pharmacokinetic and pharmacodynamic profile
